Reference: PMC8391421, “Identification of Novel Positive Allosteric Modulators of Neurotrophin Receptors for the Treatment of Cognitive Dysfunction” (Cells, 2021)
pEC50: −log10 of the molar value. “Also recorded” adds a separate entry of the source.

Experiments:
TrkA = target: T1, TrkA (Homo sapiens, UniProt P04629); assay: TrkA PathHunter cell-based assay (U2OS-TrkA/p75)
T1 construct: host or cells: U2OS (human osteosarcoma), co-expressing p75 and SHC-1 fused to the enzyme acceptor
Procedure: U2OS cells were maintained subconfluent in EMEM supplemented with 10% FBS and penicillin/streptomycin/hygromycin and G418. One day prior to the experiment, 5000 cells of EMEM supplemented with 0.5% horse serum were seeded in each well of a 384-well white plate. The assay was performed as previously described. Briefly, the TrkA or TrkB cell-based PathHunter® assays use enzyme fragment complementation (EFC) technology for the complementation of two β-galactosidase (β-gal) fragments in order to study protein–protein interactions. Upon activation with ligand, TrkA or TrkB are phosphorylated on several tyrosine residues, including tyrosine 490, leading to an interaction with SHC-1. In the PathHunter® assays, the Trk-receptors are fused to an enzyme donor tag, and SHC-1 is fused to a larger part of β-gal called an enzyme acceptor. The interactions between the recombinant enzyme donor, i.e., the Trk-receptor, with an enzyme acceptor, i.e., SHC-1, leads to an active β-gal enzyme. The functional (complemented) β-gal will hydrolyze a substrate to generate a luminescence signal. The generated luminescence was read using an EnVision plate reader from PerkinElmer, Upplands Väsby, Sweden, or an ID5 plate reader from Molecular Devices, Berkshire, RG41 5TS UK. […] Min- and Max-control wells were included on each plate.
Both Toltrazuril and Ponazuril are registered veterinary products prescribed for parasitic infections in animals. […] The activation of Trk-receptors leads to an intracellular interaction between the Trk-receptor and SHC-1 and thereby to the complementation of β-gal, which will render in a functional enzyme. β-gal will hydrolyze a substrate to generate luminescence, which is proportional to the number of activated receptors.

[1] = tested on: Shaffer collaterals-CA1 pathway, hippocampal slices; assay: Facilitation of long-term potentiation in rat hippocampal slices; conditions: 20 µM added 15 min before Ø burst stimulation; n = 7 slices from 5 rats
Procedure: Male Sprague Dawley rats (4–5 weeks old) from Charles River Laboratories, Sulzfeld, Germany, were used in these experiments. Rats were deeply anesthetized using isoflurane and decapitated soon after the disappearance of the corneal reflexes. The brains were removed and placed in ice-cold standard artificial CSF (aCSF) solution (124 mM NaCl, 30 mM NaHCO3, 10 mM glucose, 1.25 mM NaH2PO4, 3.5 mM KCl, 1 mM MgCl2, 2 mM CaCl2). Hippocampal horizontal sections (400 µm thick) were prepared using a Leica VT1200S vibratome (Leica Microsystems, Kista, Sweden). Immediately after slicing, sections were transferred into an interface incubation chamber filled with standard aCSF. The chamber was held at 34 °C during the slicing period and was subsequently allowed to cool down to room temperature. […] The facilitation of long-term potentiation (LTP) was monitored in the Shaffer collaterals (SC)-CA1 pathway in the hippocampus. […] Data were normalized with respect to the mean fEPSP slope recorded during the last 10 min of the baseline period.
It has been well-described that the transient, short-term plasticity of synaptic strength induced by a weak stimulation in hippocampal slices can turn into long-term potentiation (LTP) through the exogenous application of BDNF [71, 72, 73]. […] In the control slices, the recorded potentiation decreased to the baseline level after 60 min. […]

C57BL/6J mice = assay: Morris water maze; type: in vivo, mouse
Procedure: Male C57BL/6J mice (n = 8/group) from Taconic, Lille Skensved, Denmark, 7–8 weeks of age at arrival, were used in experiments that were predominantly performed as described previously. Vehicle or ACD855 (3 mg/kg; formulated in 20% DMSO in 0.1 M sodium phosphate buffer pH 8.0) was administered daily for the first four days (Day 1–4) through subcutaneous (s.c.) injections (10 mL/kg body weight). During the behavioral training days (Day 5–10), ACD855 or vehicle was administered s.c. 60 min prior to training. Moreover, during the behavioral training days, scopolamine (0.3 mg/kg) or vehicle was administered s.c. 30 min prior to training.

T1 sequence (P04629 33-796): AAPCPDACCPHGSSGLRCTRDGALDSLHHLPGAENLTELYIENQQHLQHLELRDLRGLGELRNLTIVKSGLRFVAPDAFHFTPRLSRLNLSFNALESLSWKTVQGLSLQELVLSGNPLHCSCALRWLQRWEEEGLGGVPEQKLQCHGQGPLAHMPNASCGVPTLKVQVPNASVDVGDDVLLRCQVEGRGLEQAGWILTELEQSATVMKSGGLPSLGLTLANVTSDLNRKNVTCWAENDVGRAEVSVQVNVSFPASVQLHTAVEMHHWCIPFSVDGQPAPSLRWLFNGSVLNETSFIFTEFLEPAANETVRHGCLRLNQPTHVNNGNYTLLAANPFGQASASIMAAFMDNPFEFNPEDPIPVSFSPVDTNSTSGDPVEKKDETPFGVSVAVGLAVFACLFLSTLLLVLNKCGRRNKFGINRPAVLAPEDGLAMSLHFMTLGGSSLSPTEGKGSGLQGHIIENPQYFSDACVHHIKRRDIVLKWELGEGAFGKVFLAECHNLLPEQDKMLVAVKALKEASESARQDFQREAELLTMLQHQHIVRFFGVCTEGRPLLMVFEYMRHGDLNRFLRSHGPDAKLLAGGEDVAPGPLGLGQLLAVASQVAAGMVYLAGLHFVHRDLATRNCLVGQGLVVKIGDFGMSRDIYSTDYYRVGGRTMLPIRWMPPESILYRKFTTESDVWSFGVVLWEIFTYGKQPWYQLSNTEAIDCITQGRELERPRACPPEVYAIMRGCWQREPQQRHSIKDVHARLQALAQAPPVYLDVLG

Cc1cc(-n2c(=O)[nH]c(=O)n(C)c2=O)ccc1Oc1ccc(S(=O)(=O)C(F)(F)F)cc1 [ACD855, Toltrazuril-sulfone]
modulation of TrkA activity over NGF dose-response curve (TrkA; 0.3, 1 and 3 µM compound with a wide range of NGF concentrations): positively modulated TrkA activity
pEC50 (TrkA; PathHunter cell-based assay): 5.72
TrkA Effect (efficacy) (TrkA; PathHunter cell-based assay): 144%
activation of TrkA-receptor by compound itself (TrkA; without ligand, 100% = 30 ng/mL ligand): 45%
long-lasting potentiation of evoked synaptic responses (fEPSP slope), fold increase [1]: 1.21 ± 0.03 fold
effect of compound by itself on cognitive function (swim latency, Day 1) (C57BL/6J mice; 3 mg/kg s.c., no scopolamine, vs vehicle): seemed to improve cognitive function compared to vehicle; also recorded: improved cognitive function compared to vehicle
effect on scopolamine-induced cognitive impairment (swim latency) (C57BL/6J mice; 3 mg/kg s.c., scopolamine 0.3 mg/kg): significantly blocked; also recorded: completely blocked
retention test (probe trial) (C57BL/6J mice; control vs treated groups): only an improvement trend
swim speed (C57BL/6J mice; control vs treated groups): no significant differences
